Test results: ChEMBL document CHEMBL1201862, “PubChem BioAssay data set” (2004)
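Following 48 hours of exposure in 96-well plates, responses at five concentrations were used to interpolate endpoints linearly. GI50: concentration for 50% inhibition of growth.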 The source made the active and inactive calls. Cut-off read from the data, not from the text of the source: active = GI50 up to about 1.1 µM and inactive = higher.

How the values were obtained:
Test in all cases: NCI-60 cell line screen, 48 h
A549 = system: A549
ACHN = system: ACHN
HCT-116 = system: HCT-116
HCT-15 = system: HCT-15
HOP-62 = system: HOP-62
HOP-92 = system: HOP-92
HT-29 = system: HT-29
Hs-578T = system: Hs-578T
M14 = system: M14
Malme-3M = system: Malme-3M
OVCAR-3 = system: OVCAR-3
SF-268 = system: SF-268
TK-10 = system: TK-10
U-251 = system: U-251
UACC-62 = system: UACC-62
COLO 205 = system: COLO 205
HCC 2998 = system: HCC 2998
MDA-MB-435 = system: MDA-MB-435
NCI-H226 = system: NCI-H226
SNB-75 = system: SNB-75

Compound	GI50 (A549)	GI50 (ACHN)	GI50 (HCT-116)	GI50 (HCT-15)	GI50 (HOP-62)	GI50 (HOP-92)	GI50 (HT-29)	GI50 (Hs-578T)	GI50 (M14)	GI50 (Malme-3M)	GI50 (OVCAR-3)	GI50 (SF-268)	GI50 (TK-10)	GI50 (U-251)	GI50 (UACC-62)	GI50 (COLO 205)	GI50 (HCC 2998)	GI50 (MDA-MB-435)	GI50 (NCI-H226)	GI50 (SNB-75)
Cc1ccc(S(=O)(=O)OCC(=O)O)cc1	> 100 µM (inactive)	> 100 µM (inactive)	> 100 µM (inactive)	> 100 µM	> 100 µM (inactive)	> 100 µM (inactive)	> 100 µM (inactive)	> 100 µM (inactive)	> 100 µM (inactive)	> 100 µM (inactive)	> 100 µM (inactive)	> 100 µM (inactive)	> 100 µM (inactive)	> 100 µM (inactive)	> 100 µM (inactive)					
O=c1s[s+]([O-])c2ccccc12 (centres undefined)	> 100 µM (inactive)	> 100 µM (inactive)	> 100 µM (inactive)	72.9 µM	> 100 µM (inactive)	> 100 µM (inactive)	> 100 µM (inactive)		> 100 µM (inactive)	> 100 µM (inactive)	> 100 µM (inactive)			> 100 µM (inactive)	> 100 µM (inactive)	> 100 µM (inactive)	> 100 µM (inactive)	> 100 µM (inactive)	> 100 µM (inactive)	> 100 µM (inactive)
O=C(c1ccccc1)C1N=NN(Cc2ccccc2[N+](=O)[O-])C1C(=O)c1ccccc1 (centres undefined)	37.8 µM (inactive)	> 100 µM (inactive)	> 100 µM (inactive)	> 100 µM	> 100 µM (inactive)	> 100 µM (inactive)	> 100 µM (inactive)		> 100 µM (inactive)	> 100 µM (inactive)	> 100 µM (inactive)	> 100 µM (inactive)	> 100 µM (inactive)	> 100 µM (inactive)	> 100 µM (inactive)	34.5 µM (inactive)	96.8 µM (inactive)		> 100 µM (inactive)	41.5 µM (inactive)
CC1=C(C(=O)NCc2ccccc2)C(c2ccc(Cl)c(Cl)c2)C(C(=O)NCc2ccccc2)=C(C)N1	> 100 µM (inactive)	> 100 µM (inactive)	> 100 µM (inactive)	> 100 µM	> 100 µM (inactive)	> 100 µM (inactive)	> 100 µM (inactive)		> 100 µM (inactive)	> 100 µM (inactive)	> 100 µM (inactive)	> 100 µM (inactive)	> 100 µM (inactive)	> 100 µM (inactive)	> 100 µM (inactive)		> 100 µM (inactive)		> 100 µM (inactive)	> 100 µM (inactive)
Cc1cccc(C)c1NC(=O)CCC(=O)/N=C(\N)NC#N	> 100 µM (inactive)	> 100 µM (inactive)	> 100 µM (inactive)	> 100 µM	> 100 µM (inactive)	> 100 µM (inactive)	> 100 µM (inactive)		> 100 µM (inactive)	> 100 µM (inactive)	> 100 µM (inactive)	> 100 µM (inactive)	> 100 µM (inactive)	> 100 µM (inactive)	> 100 µM (inactive)	> 100 µM (inactive)	> 100 µM (inactive)		> 100 µM (inactive)	> 100 µM (inactive)
[O-][S+](CCCl)c1c2ccccc2nc2ccccc12 (centres undefined)	> 100 µM (inactive)	> 100 µM (inactive)	42.1 µM (inactive)	> 100 µM	> 100 µM (inactive)	> 100 µM (inactive)	53.6 µM (inactive)		75 µM (inactive)	> 100 µM (inactive)	> 100 µM (inactive)	> 100 µM (inactive)	> 100 µM (inactive)	> 100 µM (inactive)	> 100 µM (inactive)	36.9 µM (inactive)	> 100 µM (inactive)	84.9 µM (inactive)	> 100 µM (inactive)	> 100 µM (inactive)
CN(N)c1cc(=O)[nH]c(=O)[nH]1	54 µM (inactive)	> 100 µM (inactive)	> 100 µM (inactive)	> 100 µM	> 100 µM (inactive)		> 100 µM (inactive)	51.2 µM (inactive)		> 100 µM (inactive)	> 100 µM (inactive)	> 100 µM (inactive)	> 100 µM (inactive)		> 100 µM (inactive)		> 100 µM (inactive)		> 100 µM (inactive)	
c1cn(C23C4C5C6C4C2C6C53)cn1 (centres undefined)	> 100 µM (inactive)	> 100 µM (inactive)	> 100 µM (inactive)	> 100 µM	> 100 µM (inactive)		> 100 µM (inactive)	> 100 µM (inactive)	> 100 µM (inactive)			> 100 µM (inactive)	> 100 µM (inactive)	> 100 µM (inactive)		> 100 µM (inactive)	> 100 µM (inactive)	> 100 µM (inactive)	> 100 µM (inactive)	> 100 µM (inactive)
O=[N+]([O-])c1ccc(-n2nnc(C3=NCCN3)c2-c2ccccc2)cc1	> 100 µM (inactive)	> 100 µM (inactive)	> 100 µM (inactive)	> 100 µM	> 100 µM (inactive)	> 100 µM (inactive)	> 100 µM (inactive)		> 100 µM (inactive)	> 100 µM (inactive)	> 100 µM (inactive)	> 100 µM (inactive)	> 100 µM (inactive)	> 100 µM (inactive)	> 100 µM (inactive)	> 100 µM (inactive)	> 100 µM (inactive)		> 100 µM (inactive)	> 100 µM (inactive)
N#CC1=C(Cl)NC(Cl)=C(C#N)C1c1ccc(Cl)cc1	22.1 µM (inactive)	17.7 µM (inactive)	20.2 µM (inactive)	15.4 µM	18.1 µM (inactive)	15.2 µM (inactive)	16 µM (inactive)		16.8 µM (inactive)	21.3 µM (inactive)	14 µM (inactive)	18.7 µM (inactive)	18 µM (inactive)	16.3 µM (inactive)	16.7 µM (inactive)	16.5 µM (inactive)	19.1 µM (inactive)		20.5 µM (inactive)	14.9 µM (inactive)
CC1(C)C(=O)C=CC2(C)C1CC(O)C1(C)C2CCC2(C)C(c3ccoc3)OC(=O)C3OC321 (centres undefined)	19.2 µM (inactive)	14.1 µM (inactive)	15.3 µM (inactive)	10.6 µM	24.4 µM (inactive)	16.4 µM (inactive)	17.1 µM (inactive)		32 µM (inactive)		13.9 µM (inactive)		16 µM (inactive)	17.4 µM (inactive)	12.6 µM (inactive)	21.5 µM (inactive)	13.4 µM (inactive)	23.7 µM (inactive)	14.2 µM (inactive)	15.9 µM (inactive)
CC1(C)OC[C@@H]([C@H](O)C2C=CC(=O)S2)O1 (some centres undefined)	29.6 µM (inactive)	19.2 µM (inactive)	14.3 µM (inactive)	19.8 µM	47.9 µM (inactive)	22.4 µM (inactive)	23.6 µM (inactive)		44.3 µM (inactive)	18.1 µM (inactive)	50.5 µM (inactive)	15.5 µM (inactive)	44.9 µM (inactive)	27.7 µM (inactive)	14.6 µM (inactive)	17.9 µM (inactive)	16.6 µM (inactive)	37.8 µM (inactive)	27.5 µM (inactive)	45.5 µM (inactive)
COC(=O)C1=C(O)c2cc3c(cc2[C@H](c2cc(OC)c(OC)c(OC)c2)C1)OCO3	57.5 µM (inactive)	23.1 µM (inactive)	55.3 µM (inactive)	25.2 µM	> 100 µM (inactive)	96.8 µM (inactive)	48.1 µM (inactive)		34.7 µM (inactive)	38.1 µM (inactive)	19 µM (inactive)	51.5 µM (inactive)	34.4 µM (inactive)	44.5 µM (inactive)	5.74 µM (inactive)	19.3 µM (inactive)	1.23 µM (inactive)		87.7 µM (inactive)	> 100 µM (inactive)
O=c1[nH]nc(Cc2ccc(Cl)cc2)n1/N=C/c1cccs1	64.9 µM (inactive)	75.7 µM (inactive)	30.8 µM (inactive)	> 100 µM	22.1 µM (inactive)	24.6 µM (inactive)	14 µM (inactive)		> 100 µM (inactive)	> 100 µM (inactive)	> 100 µM (inactive)	15.9 µM (inactive)		28.4 µM (inactive)	> 100 µM (inactive)	> 100 µM (inactive)	> 100 µM (inactive)	> 100 µM (inactive)	43.5 µM (inactive)	19.1 µM (inactive)
N#C/C(=C\c1cc(Br)c(O)c(Br)c1)c1ccccn1	59.6 µM (inactive)	90.6 µM (inactive)	> 100 µM (inactive)	41.2 µM	53.2 µM (inactive)	14.5 µM (inactive)	59 µM (inactive)		72.8 µM (inactive)	23.6 µM (inactive)	49.3 µM (inactive)	93.8 µM (inactive)	80.2 µM (inactive)	22.9 µM (inactive)	37.1 µM (inactive)	52.4 µM (inactive)	42.9 µM (inactive)		30.4 µM (inactive)	> 100 µM (inactive)
Nc1ccc(S(=O)(=O)Nc2nccs2)cc1 [SULFATHIAZOLE]	> 100 µM (inactive)	> 100 µM (inactive)	> 100 µM (inactive)	> 100 µM	> 100 µM (inactive)	0.0101 µM (active)	> 100 µM (inactive)		> 100 µM (inactive)	> 100 µM (inactive)	> 100 µM (inactive)	> 100 µM (inactive)	> 100 µM (inactive)	> 100 µM (inactive)	> 100 µM (inactive)	> 100 µM (inactive)	> 100 µM (inactive)	> 100 µM (inactive)	> 100 µM (inactive)	17 µM (inactive)
